Source: patent publication EP1142583A1, “ANTITUMOR AGENTS” (TEIKOKU HORMONE MFG. CO., LTD., priority 1999, dated 2000)
Like-named read-outs stand apart in the source and are kept apart here.

Test system: WiDr cells
Test: Cell death rate by flow cytometry (PI DNA content, EPICS XL)
Type: cell-based, human
Conditions: for Cell death rate (%): WiDr cells
Description: DMEM medium containing 10% fetal bovine serum was placed in plastic culture dishes having a diameter of 6 cm. Then, WiDr cells (obtained from HSRRB), which were human colon carcinoma cells, were inoculated thereinto so as to give a density of 2.0 x 10^5 cells/3 mL. These culture dishes were incubated at 37°C for 48 hours. Moreover, 1/1000 volume of PD98059 (with a final concentration of 50 µmol/L) or solvent (DMSO) was added thereto, followed by incubation for 12 hours. Thereafter, 1/1000 volume of TZT-1027 (with a final concentration of 10 nmol/L) or solvent (a lactic acid buffer) was added thereto. Where vincristine was used as the microtubule-interfering agent, 1/1000 volume of vincristine sulfate (with a final concentration of 100 nmol/L) or solvent (DMSO) was added thereto. Twenty-four (24), 48, 72 or 96 hours after the addition of TZT-1027, vincristine or solvent, cells were collected and worked up according to the following procedure. With respect to a solvent control group and a group treated with PD98059 alone, cells were similarly collected and worked up after 96 hours' incubation.
First of all, all of the culture medium was transferred to a centrifuge tube. The remaining cells were suspended by adding 1 mL of a 0.05% trypsin/phosphate-buffered physiological saline (PBS)-EDTA solution to the culture dish and incubating it at 37°C for 5 minutes, and combined with the above culture medium. The centrifuge tube was centrifuged at 1,500 rpm for 5 minutes. Then, the precipitate was resuspended in 1 mL of PBS, transferred to a light-shielding microtube, and centrifuged at 2,500 rpm for 5 minutes. After the precipitate was suspended in 60 µL of PBS, 140 µL of 100% ethanol was added thereto and the resulting suspension was stirred and allowed to stand at -20°C overnight or longer. Moreover, the suspension was centrifuged at 2,500 rpm for 5 minutes, and 100 µL of a phosphate-citric acid buffer (0.2M […] : 0.1M citric acid = 24:1) was added to the precipitate, followed by stirring (at 500 rpm) at room temperature for 30 minutes. After suspension was centrifuged at 2,500 rpm for 5 minutes, 100 µL of PBS and 1 µL of an RNase solution (10 mg/mL (PBS); obtained from SIGMA) was added to the precipitate, followed by incubation at 37°C for 30 minutes. Thereafter, 880 µL of PBS and 20 µL of a propidium iodide (hereinafter referred to as "PI") solution (1 mg/mL (PBS); obtained from Wako Pure Chemical Industries Ltd.) were added thereto and reacted at room temperature for 30 minutes with stirring. The resulting reaction mixture was allowed to stand in the dark under cooling with ice until it was used for measurement.
The cell death rate was measured and analyzed by means of an EPICS XL system (manufactured by COULTER). Prior to analysis, the EPICS XL system was checked by means of DNAcheck (manufactured by COULTER).
Next, a protocol used for calculating the cell death rate by using the DNA content as a parameter was constructed. In this protocol, FS (forward scatter), SS (side scatter) and FL3 (PI fluorescence) were selected as parameters, and the number of analyzed cells was 30,000. Furthermore, by measuring a control sample of cells to be actually measured, the sensitivity of the detector and regions were preset with consideration for each parameter. Measurements were made by pipetting a sample at several times, transferring it into an exclusive tube, and setting it in the main unit of the EPICS XL system. The cell death rate was calculated by use of histograms in the protocol, which were constructed by removing doublets and triplets from data incorporating dead cells.

[1] = Homo sapiens, WiDr, 96 h, read-out: Cell death rate (%)
[2] = Homo sapiens, WiDr, 24 h, read-out: Cell death rate (%)
[3] = Homo sapiens, WiDr, 48 h, read-out: Cell death rate (%)

Compound: COc1cccc(-c2cc(=O)c3ccccc3o2)c1N [PD98059, 2-(2-amino-3-methoxyphenyl)-4H-chromen-4-one]
- cytotoxicity at 50 µM [1]: 8.9%

Compound: CC[C@H](C)[C@@H]([C@@H](CC(=O)N1CCC[C@H]1[C@H](OC)[C@@H](C)C(=O)NCCc1ccccc1)OC)N(C)C(=O)[C@@H](NC(=O)[C@H](C(C)C)N(C)C)C(C)C [TZT-1027, N^2-(N,N-Dimethyl-L-valyl)-N-[(1S,2R)-2-methoxy-4-[(2S)-2-[(1R,2R)-1-methoxy-2-methyl-3-oxo-3-[(2-phenylethyl)-amino]propyl]-1-pyrrolidinyl]-1-[(S)-1-methylpropyl]-4-oxobutyl]-N-methyl-L-valinamide]
- cytotoxicity at 0.01 µM [2]: 3.8%
- cytotoxicity at 0.01 µM [3]: 9.2%
- cytotoxicity at 0.01 µM [1]: 23.3%
- Cell death rate (%) (TZT-1027 10 nmol/L combined with PD98059 50 µmol/L (added 12 hours before), time 24): 10.5%
- Cell death rate (%) (TZT-1027 10 nmol/L combined with PD98059 50 µmol/L (added 12 hours before), time 48): 35.9%
- Cell death rate (%) (TZT-1027 10 nmol/L combined with PD98059 50 µmol/L (added 12 hours before), time 96): 48.1%

Compound: CC[C@]1(O)C[C@H]2CN(CCc3c([nH]c4ccccc34)[C@@](C(=O)OC)(c3cc4c(cc3OC)N(C=O)[C@H]3[C@@](O)(C(=O)OC)[C@H](OC(C)=O)[C@]5(CC)C=CCN6CC[C@]43[C@@H]65)C2)C1 [Vincristine, vincristine]
- cytotoxicity at 0.1 µM [2]: 4.5%
- cytotoxicity at 0.1 µM [3]: 8.4%
- cytotoxicity at 0.1 µM (Homo sapiens, WiDr, 72 h, read-out: Cell death rate (%)): 23.3%
- Cell death rate (%) (Vincristine 100 nmol/L combined with PD98059 50 µmol/L (added 12 hours before), time 24): 12.1%
- Cell death rate (%) (Vincristine 100 nmol/L combined with PD98059 50 µmol/L (added 12 hours before), time 48): 37.4%
- Cell death rate (%) (Vincristine 100 nmol/L combined with PD98059 50 µmol/L (added 12 hours before), time 72): 58.7%
